Patent US11498929B2, “Chromenopyrimidine derivatives as phosphatidylinsitol phosphate kinase inhibitors” (Hibercell, Inc., priority 2019, dated 2022)

Assays:
PIP4K2A = biological target: T1, PIP4K2A (Homo sapiens, UniProt P48426); assay: Kinase Assay - PIP4K2 A (inhibition of PIP4K2 A kinase assay); assay type: biochemical; conditions: compounds listed under IC50 bin headings
T1 construct: GST; made in house; host or cells: E. coli
T1 sequence (P48426 1-406): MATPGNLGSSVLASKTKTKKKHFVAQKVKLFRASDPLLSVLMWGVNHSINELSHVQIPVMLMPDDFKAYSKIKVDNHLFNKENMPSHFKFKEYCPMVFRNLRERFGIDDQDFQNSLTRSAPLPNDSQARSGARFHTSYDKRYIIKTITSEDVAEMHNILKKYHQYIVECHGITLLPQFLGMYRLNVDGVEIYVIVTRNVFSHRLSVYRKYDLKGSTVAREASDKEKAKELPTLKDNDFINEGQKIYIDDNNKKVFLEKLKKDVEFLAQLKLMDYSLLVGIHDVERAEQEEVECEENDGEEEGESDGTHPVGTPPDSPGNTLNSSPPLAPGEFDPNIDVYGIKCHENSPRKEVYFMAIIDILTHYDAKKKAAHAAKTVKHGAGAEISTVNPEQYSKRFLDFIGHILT
Procedure: Dilution series of the compounds were prepared in DMSO at 100 times the final assay concentration (n1=n0/3 in 10 points). The compounds were further diluted to three times the assay concentration in assay buffer (20 mM MOPS pH 7.2, 25 mM magnesium chloride, 0.005% Tween 20). 6 μL of the diluted compounds were added to a 384 well assay plate followed by 9 μL of a mix consisting of 4 nM PIP4K2A (full length protein, SignalChem) and 100 μM PI(5)P diC8 (Tebu-Bio). Enzyme and compounds were pre-incubated at room temperature for 15 minutes.
Then 3 μL of a solution containing 60 μM ATP (Promega) in assay buffer was added to the wells containing compound and enzyme and mixing was performed by pipetting several times. The reaction was incubated at room temperature for 1 h. Then 18 μL of ADP-Glo™ Reagent (Promega) was added to stop the kinase reaction and deplete the unconsumed ATP, mixing was performed by pipetting several times. The plate was incubated at room temperature for 40 minutes before addition of 36 μL of Kinase Detection Reagent (Promega) to convert ADP to ATP and introduce luciferase and luciferin to detect ATP. The reaction was incubated at room temperature for 40 minutes before the luminescence was measured in a in a Victor 3V 1420 multilabel counter (Perkin Elmer).
Percent inhibition of the compounds as compared to dimethyl sulfoxide treated control samples was calculated. Compound concentration versus percent inhibition were fitted to generate IC50 values. […]

[1] = biological target: T2, PIP4K2 B (GST-tagged PIP4KtypeIIB) (Homo sapiens, UniProt P78356); assay: Kinase Assay - PIP4K2 B (inhibition of PIP4K2 B kinase assay); assay type: biochemical; conditions: compounds listed under IC50 bin headings
T2 construct: GST; made in house; host or cells: E. coli
T2 sequence (P78356 1-416): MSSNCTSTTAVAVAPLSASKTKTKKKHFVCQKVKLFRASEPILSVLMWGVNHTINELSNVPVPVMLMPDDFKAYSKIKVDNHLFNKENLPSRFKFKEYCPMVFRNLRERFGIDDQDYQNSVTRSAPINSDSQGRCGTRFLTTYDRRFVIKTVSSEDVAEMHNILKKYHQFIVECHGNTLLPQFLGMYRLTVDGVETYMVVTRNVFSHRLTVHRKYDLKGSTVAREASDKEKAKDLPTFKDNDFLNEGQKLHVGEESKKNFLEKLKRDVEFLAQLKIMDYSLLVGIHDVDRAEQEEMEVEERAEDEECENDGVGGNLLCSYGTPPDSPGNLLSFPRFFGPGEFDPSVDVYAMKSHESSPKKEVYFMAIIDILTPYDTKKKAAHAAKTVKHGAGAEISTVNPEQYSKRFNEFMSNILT
Description: GST tagged PIP4KtypeIIA and B enzymes were overexpressed in E. Coli and purified to >80% homogeneity. Phosphatidyl inositol-5-phosphate (PI5P, Cat. #850152, Avanti Polar Lipids Inc.) was used as the lipid substrate and phosphatidyl ethanolamine (DOPE 18:1, Cat. #850725, Avanti Polar Lipids Inc.) was used as the carrier lipid for assays. Ultrapure ATP and GTP was purchased from Bellbrooke Labs. ADP Glo reagents were obtained from Promega. Transcreener FI reagent was obtained from Bellbrooke labs.
GST-tagged PIP4KtypeIIB (3.4 uL, 2.77 mg/mL) was diluted to 5 mL using HNE buffer to yield 5× enzyme stock (25 nM)
Lipid Preparation: In a 10 mL pyrex glass vial, 1 ug of PI5P and 1 ug of DOPE were suspended in 2.5 mL of HEPES buffer mix and 2.5 mL of H:E buffer. The contents were mixed and sonicated for 3 min to yield a translucent lipid stock.
Compound Preparation: Compounds were stored as 5 mM stocks in neat DMSO as room temperature in glass vials. 5 mM stocks were diluted to 2 mM and then serially diluted (3×) in neat DMSO in 96 well polypropylene plates. From the serially diluted stocks, 3 uL was delivered into 250 uL of 25% DMSO (in water) to generate 5× compound stocks. Typically, the highest compound conc. was 24 uM.
The assay volume was kept at 25 uL. To each well of the reaction plate, 10 uL of lipid stock (1:1 ratio PI5P:DOPE) was delivered. This was followed by the addition of 5 uL of compound in 25% DMSO. Then, to each well, 5 uL of 25 nM (5×) typeIIB enzyme was delivered. The contents were mixed well and incubated for 1 h at 27 C. After 1 h, reaction was initiated by adding 5 uL of 500 uM GTP and the contents were mixed well with a multi-channel pipetteman. The final concentration of the reagents are as follows: 50 mM HEPES, pH 7.3, 10 mM MgCl2, 20 mM NaCl, 0.01% v/v triton-X100, 5% DMSO, 100 uM GTP, 80 uM (2 ug) PI5P, 2 ug DOPE, and 5 nM PIP4KIIB Typically, the highest conc. of compounds was 4.8 uM and the lowest conc. was 0.
After 2 h, the reaction was quenched by adding 25 uL of transcreener FI reagent. The contents were incubated at RT for 1 h and the Fluorescence (Ex:584 Em: 623) was read using Molecular Devices Paradigm plate reader. […] The blanks were averaged and subtracted from all other wells. Using a calibration curve, RFU was converted to uM GDP (product). IC50 was calculated by plotting the residual activity (expressed as % No inhibitor control) vs. log [Inh. conc.]

MOLM-16 = MOLM-16 EC50 assay; assay type: cell-based; conditions: MOLM16

Structure (SMILES) | IC50 (PIP4K2A) [nM] | IC50 [1] [nM] | EC50 (MOLM-16) [nM]
CC1(C)Oc2cc(N3CCCC3=O)ccc2-c2cnc(Nc3cnc4c(c3)N(C(=O)NCCN3CCOCC3)CCO4)nc21 [Compound 2, 7-{[5,5-dimethyl-8-(2-oxopyrrolidin-1-yl)-5H-chromeno[3,4-d]pyrimidin-3-yl]amino}-N-[2-(morpholin-4-yl)ethyl]-1H,2H,3H-pyrido[2,3-b][1,4]oxazine-1-carboxamide] | 1 to 10 | 1 to 10 | 10 to 100
C[C@@H]1CCC(=O)N1c1ccc2c(c1)OC(C)(C)c1nc(Nc3cnc4c(c3)N(C(=O)CN(C)C)CCO4)ncc1-2 [Compound 3, (5R)-1-[3-({1-[2-(dimethylamino)acetyl]-1H,2H,3H-pyrido[2,3-b][1,4]oxazin-7-yl}amino)-5,5-dimethyl-5H-chromeno[3,4-d]pyrimidin-8-yl]-5-methylpyrrolidin-2-one] | 1 to 10 | 1 to 10 | 10 to 100
Cc1cnnn1-c1ccc2c(c1)OC(C)(C)c1nc(Nc3cnc4c(c3)N(C(=O)N(C)C)CCO4)ncc1-2 [Compound 5, 7-{[5,5-dimethyl-8-(5-methyl-1H-1,2,3-triazol-1-yl)-5H-chromeno[3,4-d]pyrimidin-3-yl]amino}-N,N-dimethyl-1H,2H,3H-pyrido[2,3-b][1,4]oxazine-1-carboxamide] | ≤ 1 | 1 to 10 | 100 to 1000
Cc1cnnn1-c1ccc2c(c1)OC(C)(C)c1nc(Nc3cncc(N4CCN(CCO)CC4)c3)ncc1-2 [Compound 6, 2-[4-(5-{[5,5-dimethyl-8-(5-methyl-1H-1,2,3-triazol-1-yl)-5H-chromeno[3,4-d]pyrimidin-3-yl]amino}pyridin-3-yl)piperazin-1-yl]ethan-1-ol] | ≤ 1 | 1 to 10 | 100 to 1000
CNC(=O)N1CCOc2ncc(Nc3ncc4c(n3)C(C)(C)Oc3cc(N5C(=O)CC[C@H]5C)ccc3-4)cc21 [Compound 18, 7-({5,5-dimethyl-8-[(2R)-2-methyl-5-oxopyrrolidin-1-yl]-5H-chromeno[3,4-d]pyrimidin-3-yl}amino)-N-methyl-1H,2H,3H-pyrido[2,3-b][1,4]oxazine-1-carboxamide] | ≤ 1 | 1 to 10 | –
C[C@@H]1CCC(=O)N1c1ccc2c(c1)OC(C)(C)c1nc(Nc3cnc4c(c3)N(C(=O)NC3CC3)CCO4)ncc1-2 [Compound 20, N-cyclopropyl-7-({5,5-dimethyl-8-[(2R)-2-methyl-5-oxopyrrolidin-1-yl]-5H-chromeno[3,4-d]pyrimidin-3-yl}amino)-1H,2H,3H-pyrido[2,3-b][1,4]oxazine-1-carboxamide] | 1 to 10 | 1 to 10 | –
CC1(C)Oc2cc(N3C(=O)CCC34CC4)ccc2-c2cnc(Nc3cccnc3)nc21 [Compound 24, 4-{5,5-dimethyl-3-[(pyridin-3-yl)amino]-5H-chromeno[3,4-d]pyrimidin-8-yl}-4-azaspiro[2.4]heptan-5-one] | 1 to 10 | – | 100 to 1000
CCN(CC)CCN(C)c1cncc(Nc2ncc3c(n2)C(C)(C)Oc2cc(-n4nncc4C)ccc2-3)c1 [Compound 27, N3-[2-(diethylamino)ethyl]-N5-[5,5-dimethyl-8-(5-methyl-1H-1,2,3-triazol-1-yl)-5H-chromeno[3,4-d]pyrimidin-3-yl]-N3-methylpyridine-3,5-diamine] | 1 to 10 | – | 100 to 1000

Further lines, results first:

IC50 (PIP4K2A) [nM] | IC50 [1] [nM] | EC50 (MOLM-16) [nM] | Structure (SMILES)
1 to 10 | 10 to 100 | 10 to 100 | CCN(CC)CCNC(=O)N1CCOc2ncc(Nc3ncc4c(n3)C(C)(C)Oc3cc(N5CCCC5=O)ccc3-4)cc21 [Compound 1, N-[2-(diethylamino)ethyl]-7-{[5,5-dimethyl-8-(2-oxopyrrolidin-1-yl)-5H-chromeno[3,4-d]pyrimidin-3-yl]amino}-1H,2H,3H-pyrido[2,3-b][1,4]oxazine-1-carboxamide]
10 to 100 | 100 to 1000 | 10 to 100 | CCN1CCN(Cc2cncc(Nc3ncc4c(n3)C(C)(C)Oc3cc(N5CCCC5=O)ccc3-4)c2)CC1 [Compound 4, 1-[3-({5-[(4-ethylpiperazin-1-yl)methyl]pyridin-3-yl}amino)-5,5-dimethyl-5H-chromeno[3,4-d]pyrimidin-8-yl]pyrrolidin-2-one]
≤ 1 | 1 to 10 | 10 to 100 | CNC(=O)N1CCOc2ncc(Nc3ncc4c(n3)C(C)(C)Oc3cc(N5CCCC5=O)ccc3-4)cc21 [Compound 7, 7-{[5,5-dimethyl-8-(2-oxopyrrolidin-1-yl)-5H-chromeno[3,4-d]pyrimidin-3-yl]amino}-N-methyl-1H,2H,3H-pyrido[2,3-b][1,4]oxazine-1-carboxamide]
1 to 10 | 10 to 100 | – | CCN(CC)CCOC(=O)N1CCOc2ncc(Nc3ncc4c(n3)C(C)(C)Oc3cc(N5CCCC5=O)ccc3-4)cc21 [Compound 21, 2-(diethylamino)ethyl 7-{[5,5-dimethyl-8-(2-oxopyrrolidin-1-yl)-5H-chromeno[3,4-d]pyrimidin-3-yl]amino}-1H,2H,3H-pyrido[2,3-b][1,4]oxazine-1-carboxylate]
1 to 10 | 100 to 1000 | – | CC1(C)Oc2cc(N3CCCC3=O)ccc2-c2cnc(Nc3cncc(CN4CC(F)C4)c3)nc21 [Compound 28, 1-[3-({5-[(3-fluoroazetidin-1-yl)methyl]pyridin-3-yl}amino)-5,5-dimethyl-5H-chromeno[3,4-d]pyrimidin-8-yl]pyrrolidin-2-one]
10 to 100 | 100 to 1000 | – | CC1(C)Oc2cc(N3CCCC3=O)ccc2-c2cnc(Nc3cncc(OCCN4CC(F)C4)c3)nc21 [Compound 30, 1-[3-({5-[2-(3-fluoroazetidin-1-yl)ethoxy]pyridin-3-yl}amino)-5,5-dimethyl-5H-chromeno[3,4-d]pyrimidin-8-yl]pyrrolidin-2-one]
10 to 100 | – | 10 to 100 | CNCCOc1cncc(Nc2ncc3c(n2)C(C)(C)Oc2cc(N4CCCC4=O)ccc2-3)c1 [Compound 34, 1-[5,5-dimethyl-3-({5-[2-(methylamino)ethoxy]pyridin-3-yl}amino)-5H-chromeno[3,4-d]pyrimidin-8-yl]pyrrolidin-2-one]
